Laboratory results taken from patent US9605013B2, “Derivatives of hemin with antibacterial and antiviral activity” (OBSCHESTVO S OGRANICHENNOI OTVETSTVENNOSTIYU …, priority 2011, dated 2017).
Marks after values point to notes of the source that are not given here.

Columns and labels:
[1] = system: Enterococcus faecalis No. 559; assay: Antibacterial specific activity, twofold dilutions, visual growth evaluation; format: cell-based; details: E. faecalis 559; 36° C., 24 hours
Experimental: (§1) The specific activity of compounds also was determined against bacteria strains such as Staphylococcus aureus No. 25923 ATCC (American Type Culture Collection); Staphylococcus aureus No. 100 KC; Staphylococcus epidermidis No. 533; Enterococcus faecalis No. 559; Enterococcus faecium No. 569, Staphylococcus aureus No. 5 (MRSA), Staphylococcus aureus No. 3797 (MRSA). Staphylococcus aureus was cultured on the Trypticase Soy Agar (BBL) commercially available dry medium. Enterococcus faecalis was cultured on the Columbia Agar (BBL) commercially available dry medium. These media were sterilized by autoclaving at 121° C. for 15 min. Bacterial inoculum was constant and was 5×10^5 CFU/ml (10^5 CFU/0.2 ml). For water-soluble compounds, wells from 2nd through 8th were added with the solvent (water) in an amount of 15 μL per well, then the 1st well was added with 30 μL of the stock solution of the tested compound in […] with a concentration of […], and the concentration was adjusted to 0.007×10^3 M by serial twofold dilutions. A 10-μL portion was taken from every well, and 190 μL of the bacterial culture (10^5 CFU) was added per well. For DMSO-soluble compounds, wells from 2nd through 8th were added with the solvent (DMSO) in an amount of 10 μL per well, then the 1st well was added with 20 μL of the stock solution of the tested compound in […] with a concentration of […], and the concentration was adjusted to 0.039×10^3 M by serial twofold dilutions. A 2-μL portion was taken from each well, and 198 μL of the bacterial culture (10^5 CFU) was added per well.
(§2) The control comprised wells free of tested compounds (culture growth control). In addition, purity control of nutritional media and solvents was used. Plates were incubated in a thermostat at 36° C. for 24 hours.
(§3) Culture growth was evaluated visually by comparison of how microorganisms grew in the presence of tested compounds and in the absence of them. MIC was set equal to the last dilution of a tested agent which suppressed bacterial culture growth.

[2] = system: Staphylococcus aureus No. 25923 ATCC; assay: as above; format: cell-based; details: S. aureus 25923; 36° C., 24 hours
Experimental: as §1, §2, §3

[3] = system: Vancomycin-resistant Enterococcus faecium 569; assay: as above; format: cell-based; details: Vancomycin-resistant E. faecium 569; 36° C., 24 hours
Experimental: as §1, §2, §3

[4] = system: Staphylococcus aureus No. 100 KC; assay: as above; format: cell-based; details: S. aureus 100 KC; 36° C., 24 hours
Experimental: as §1, §2, §3

[5] = system: Staphylococcus epidermidis No. 533; assay: as above; format: cell-based; details: S. epidermis 533; 36° C., 24 hours
Experimental: as §1, §2, §3

[6] = system: Staphylococcus aureus No. 3797 (MRSA); assay: as above; format: cell-based; details: St. aur No. 3797 MRSA; 36° C., 24 hours
Experimental: as §1, §2, §3

[7] = system: Staphylococcus aureus No. 5 (MRSA); assay: as above; format: cell-based; details: St. aur No. 5 MRSA; 36° C., 24 hours
Experimental: as §1, §2, §3

Escherichia coli 4300 = assay: as above; format: cell-based; details: E. coli 4300; 36° C., 24 hours
Experimental: [Worded in the source for another organism; this organism is reported under the same test.] as §1, §2, §3

[8] = system: Staphylococcus aureus 209P; assay: Antibacterial activity, serial dilutions in liquid MH medium; format: cell-based; details: for MIC: MH medium, 20 h, 37° C., 100% growth inhibition; for MBC: no colonies on agarized MH medium
Experimental: (§4) The antibacterial activity of the compounds was determined against strains of gram-positive bacteria such as Staphylococcus aureus 209P, Enterococcus faecalis BKM B-871, Micrococcus luteus BKM Ac-2230, Bacillus subtilis BKM B-501, and gram-negative bacteria such as Pseudomonas aeruginosa PAO1 and Escherichia coli KM MGU C-600. BKM strains were acquired from the All-Russia Collection of Microorganisms at the Institute for Biochemistry and Physiology of Microorganisms, Russian Academy of Sciences. Strain Staphylococcus aureus 209P was acquired from the Collection of Microorganisms at the Department of microbiology of the Faculty of Biology of Lomonosov Moscow State University, and Pseudomonas aeruginosa PAO1 was acquired from the Collection of Microorganisms at the Institute of Bioorganic Chemistry of the Russian Academy of Sciences.
(§5) The main parameters characterizing the antibacterial activity are the minimal inhibitory concentration (MIC) and minimal bactericidal concentration (MBC). […] MBC is the least concentration that causes the death of all cells.
(§6) MIC was quantified by inhibiting culture growth in a liquid medium with serial dilutions of compounds using a modified procedure [Amsterdam, D., 1966. “Susceptibility testing of antimicrobials in liquid media,” pp. 52-111. In Loman, V., ed. Antibiotics in laboratory medicine, 4th ed. Williams and Wilkins, Baltimore].
(§7) Bacteria were cultured and tested on an MH liquid medium (Mueller-Hinton medium: a dry extract of beef broth, 4 g/L; starch, 1.5 g/L; casein hydrolyzate, 17.5 g/L; Sigma-Fluka Catalog No. 70192) at 37° C., 100% humidity, and under stirring. Cultures (within 4 to 7 passages after thawing) in the exponential growth phase were used for tests.
(§8) All tested compounds absorb light at 595 nm, a wavelength used for evaluating bacterial culture growth. Therefore, a correction for absorption was applied in estimating the optical density of bacterial suspensions for each compound with account for its concentration in the well. Bacterial growth inhibition (GI) as percentage after 20 hours of incubating cells with compounds was derived from the optical density (A) measured in every well at a wavelength of 595 nm using the equation: GIi=[(Act−Ac0)−(Ait−Ai0)]×100/(Act−Ac0), (1) wherein the subscripts have the following meanings: i denotes the well number, c denotes a control well with bacteria whereto the tested compound is not inserted, 0 refers to the measurement taken immediately once the tested compound was inserted to the well, and t refers to the measurement taken 20 hours after the compound was inserted.
(§9) The protocol for the determination of experimental antibacterial activity of the tested compounds was as follows. A cryovial with the test strain culture in a medium with 7% DMSO stored in liquid nitrogen, was rapidly defrosted, and 1.5 mL of the fresh MH medium was inoculated with 100 μL of the cell suspension. Cells were grown for one day at 37° C. and stirred on an orbital shaker at 150 rpm. The morphologic features of the strain and the absence of contamination with foreign bacteria were verified by: (a) inoculation on an agarized (15 g/L agar) MH medium and observation of the shape and color of the grown colonies and (b) examination of characteristic morphologic features under a microscope (Mikmed-2, LOMO, Russia) equipped with a 40× objective lens. Further, the bacteria were cultured in 1 mL of the liquid MH medium at 37° C. under stirring. The cells were reseeded every day. Cell cultures were used in tests starting with 3rd reseeding and ending with 6th one.
(§10) For testing, 5 μL of a bacterial suspension in the stationary growth phase was transferred to 1 mL of a sterile MH medium and incubated until the exponential growth phase was attained (3 to 5 h, 37° C., stirring at 150 rpm). To estimate the microorganism concentration, the optical density (A) of the resulting bacterial culture was measured at a wavelength of 595 nm. […]

[9] = system: Enterococcus faecalis BKM B-871; assay: as above; format: cell-based; details: for MIC: MH medium, 20 h, 37° C., 100% growth inhibition; for MBC: no colonies on agarized MH medium
Experimental: as §4, §5, §6, §7, §8, §9, §10

[10] = system: Micrococcus luteus BKM Ac-2230; assay: as above; format: cell-based; details: for MIC: MH medium, 20 h, 37° C., 100% growth inhibition; for MBC: no colonies on agarized MH medium
Experimental: as §4, §5, §6, §7, §8, §9, §10

[11] = system: Bacillus subtilis BKM B-501; assay: as above; format: cell-based; details: for MIC: MH medium, 20 h, 37° C., 100% growth inhibition; for MBC: no colonies on agarized MH medium
Experimental: as §4, §5, §6, §7, §8, §9, §10

Structure (SMILES)	MIC [1] [µM]	MIC [2] [µM]	MIC [3] [µM]	MIC [4] [µM]	MIC [5] [µM]	MIC [6] [µM]	MIC [7] [µM]	MIC (Escherichia coli 4300) [µM]	water solubility (Water solubility)	MIC [8] [µM]	MBC [8]	MIC [9] [µM]	MBC [9]	MIC [10] [µM]	MBC [10] [µM]	MIC [11] [µM]	MBC [11]
C=CC1=C(C)c2cc3[n-]c(cc4[n-]c(cc5nc(cc1n2)C(C)=C5C=C)c(C)c4CCC(=O)N[C@@H](CCC(=O)NCCO)C(=O)NCCO)c(CCC(=O)N[C@@H](CCC(=O)NCCO)C(=O)NCCO)c3C.[Cl-].[Fe+3] [XI, 6,7-bis-[(Di-2-hydroxyethylamide)-L-glutamyl]-Protohemin (IX)]	33.3	0.39	>50.0	>50.0	6.25	12.5	12.5	>50.0	water-insoluble								
C=CC1=C(C)C2=Cc3c(C=C)c(C)c4[n]3[Fe]([Cl])[n]3c(c(C)c(CCC(=O)N[C@@H](CCCNC(=N)N)C(=O)OC)c3=CC3=NC(=C4)C(C)=C3CCC(=O)N[C@@H](CCCNC(=N)N)C(=O)OC)=CC1=N2 [XV, reference compound]	25	25	>50	50	25			>50		50	200 µM	50	400 µM	1.6	3.2	3.1	3.1 µM
C=CC1=C(C)C2=Cc3c(C=C)c(C)c4[n]3[Fe]([Cl])[n]3c(c(C)c(CCC(=O)N[C@@H](CCC(=O)N[C@@H](CCCNC(=N)N)C(=O)OC)C(=O)N[C@@H](CCCNC(=N)N)C(=O)OC)c3=CC3=NC(=C4)C(C)=C3CCC(=O)N[C@@H](CCC(=O)N[C@@H](CCCNC(=N)N)C(=O)OC)C(=O)N[C@@H](CCCNC(=N)N)C(=O)OC)=CC1=N2 [XVI, reference compound]										6.3	>200** μM	12.5	>200** μM	3.1	12.5	1.6	>200** μM
C=CC1=C(C)C2=Cc3c(C=C)c(C)c4[n]3[Fe]([Cl])[n]3c(c(C)c(CCC(=O)NCC(=O)OC)c3=CC3=NC(=C4)C(C)=C3CCC(=O)NCC(=O)OC)=CC1=N2 [XVII, reference compound]	25	25	>50	>50	25			>50		50	50 µM	100	>200** μM	1.6	6.5	12.5	25 µM
C=CC1=C(C)C2=Cc3c(C=C)c(C)c4[n]3[Fe]([Cl])[n]3c(c(C)c(CCC(=O)N[C@@H](CO)C(=O)OC)c3=CC3=NC(=C4)C(C)=C3CCC(=O)N[C@@H](CO)C(=O)OC)=CC1=N2 [XVIII, reference compound]										25	200 µM	12.5	25 µM	6.3	12.5	6.3	9 µM
